# pEC50: −log10 of the molar value.
# What was measured:
# [1] = test system: Trypanosoma brucei brucei; assay: Anti-parasitic activity against Trypanosoma brucei brucei 427 bloodstream parasites incubated for 48 hrs by alamar blue dye based assay; type: functional, organism-based; conditions: Trypanosoma brucei, 427, 48 h
# [2] = Selectivity index, ratio of cytotoxic IC50 for HEK293 cells to EC50 for anti-parasitic activity against Trypanosoma brucei brucei 427 bloodstream parasites; type: toxicity, cell-based; conditions: human, read-out: Ratio IC50/EC50
# [3] = Partition coefficient, logD of the compound at pH 7.4 by HPLC method; type: physicochemical; conditions: octanol/water
# [4] = Toxicity against rat L6 cells incubated for 70 hrs by alamar blue dye based assay; type: cell-based
# [5] = test system: Plasmodium falciparum; assay: Anti-parasitic activity against chloroquine and pyrimethamine resistant Plasmodium falciparum K1 erythrocytic stages infected in human erythrocytes incubated for 48 hrs by [3H]-hypoxanthine incorporation assay; type: functional, organism-based
# [6] = Selectivity index, ratio of cytotoxic IC50 for rat L6 cells to EC50 for anti-parasitic activity against Trypanosoma brucei rhodesiense STIB 900; type: toxicity, cell-based; conditions: read-out: Ratio IC50/EC50
# [7] = test system: Trypanosoma brucei rhodesiense; assay: Anti-parasitic activity against Trypanosoma brucei rhodesiense STIB 900 trypomastigotes incubated for 70 hrs by alamar blue dye based assay; type: functional, organism-based; conditions: STIB 900, 70 h
# [8] = target: serum albumin (Homo sapiens, UniProt P02768); assay: Binding affinity to human serum albumin by chromatographic method; type: ADME; conditions: read-out: PB (converted)
# [9] = test system: Trypanosoma cruzi; assay: Anti-parasitic activity against Trypanosoma cruzi Tulahuen C2C4 trypomastigotes infected rat L6 cells incubated for 96 hrs by CPRG/nonidet substrate based […]; type: functional, organism-based; conditions: Tulahuen C2C4, L6, 96 h
# [10] = test system: Leishmania donovani; assay: Anti-parasitic activity against Leishmania donovani MHOM/ET/67/L82 axenic amastigotes incubated for 70 hrs by alamar blue dye based assay; type: functional, organism-based; conditions: MHOM/ET/67/L82, 70 h
# [11] = Kinetic solubility in pH 6.5 phosphate buffer by nephelometry; type: physicochemical; conditions: read-out: Kinetic_solubility
# [12] = Stability assessed as degradation half life; type: physicochemical
# [13] = Kinetic solubility in pH 2.0 0.01M HCl buffer by nephelometry; type: physicochemical; conditions: read-out: Kinetic_solubility
# [14] = Intrinsic clearance in human liver microsomes assessed per mg protein at pH 7.4 at 0.5 uM in presence of NADPH regenerating system by LC-MS method; type: ADME; conditions: read-out: CLH
# serum albumin, sequence (P02768 whole entry): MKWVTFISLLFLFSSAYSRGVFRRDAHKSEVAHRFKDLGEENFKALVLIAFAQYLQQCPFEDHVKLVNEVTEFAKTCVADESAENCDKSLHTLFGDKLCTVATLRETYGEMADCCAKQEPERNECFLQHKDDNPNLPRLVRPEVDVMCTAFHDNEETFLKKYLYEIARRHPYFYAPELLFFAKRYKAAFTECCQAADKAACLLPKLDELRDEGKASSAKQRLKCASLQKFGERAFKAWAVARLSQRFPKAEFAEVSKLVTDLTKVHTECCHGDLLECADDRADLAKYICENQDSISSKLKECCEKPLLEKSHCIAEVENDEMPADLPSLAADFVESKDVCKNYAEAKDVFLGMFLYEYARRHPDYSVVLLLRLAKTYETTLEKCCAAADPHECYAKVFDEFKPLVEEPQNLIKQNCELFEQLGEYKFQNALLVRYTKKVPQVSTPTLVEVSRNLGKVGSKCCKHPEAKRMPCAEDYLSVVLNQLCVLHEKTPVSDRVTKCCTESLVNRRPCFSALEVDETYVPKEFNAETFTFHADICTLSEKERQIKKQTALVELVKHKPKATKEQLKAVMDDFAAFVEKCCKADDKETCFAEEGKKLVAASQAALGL
Structure (SMILES),pEC50 [1],selectivity ratio [2],also measured
Nc1ncc(-c2ccccc2)nc1C(=O)NCCc1ccccc1,< 5.00,,
Nc1ncc(-c2ccccc2)nc1C(=O)NCc1ccccc1,5.59,32,
CCC(C)NC(=O)c1nc(-c2cccc(C(C)=O)c2)cnc1N (stereo not drawn),< 5.00,,
CCC(CC)NC(=O)c1nc(-c2cccc(C)c2)cnc1N,6.96,774,logD [3]: 4.7; IC50 at 70 h [4]: 20000 nM; pEC50 [5]: 5.39; selectivity ratio [6]: 150; pEC50 [7]: 6.85; fraction unbound [8]: 0.036; pEC50 [9]: 4.70; pEC50 [10]: < 5.00; solubility kinetic [11]: 1.6 µg/mL; half-life [12]: 9 min; solubility kinetic [13]: 1.6 µg/mL; microsomal CLint at 0.5 µM [14]: 194 µL/min/mg
Nc1ncc(-c2ccccc2)nc1C(=O)NCCO,< 5.00,,
CCC(C)NC(=O)c1nc(-c2ccc(C(C)=O)cc2)cnc1N (stereo not drawn),5.33,8.8,
CCC(CC)NC(=O)c1nc(-c2ccc(F)cc2C#N)cnc1N,7.00,850,logD [3]: 4.2; IC50 at 70 h [4]: 20000 nM; pEC50 [5]: 5.54; selectivity ratio [6]: 230; pEC50 [7]: 7.05; fraction unbound [8]: 0.029; pEC50 [9]: 4.72; pEC50 [10]: < 5.00; solubility kinetic [11]: 1.6 µg/mL; half-life [12]: 26 min; solubility kinetic [13]: < 1.6 µg/mL; microsomal CLint at 0.5 µM [14]: 66 µL/min/mg
CCC(C)NC(=O)c1nc(-c2ccc(N)cc2)cnc1N (stereo not drawn),5.54,> 28.4,
CCC(C)NC(=O)c1nc(-c2cccc(C#N)c2)cnc1N (stereo not drawn),5.57,> 30.5,
CCC(C)NC(=O)c1nc(-c2ccccc2N)cnc1N (stereo not drawn),< 5.00,,
CNC(=O)c1nc(-c2ccccc2)cnc1N,< 5.00,,
CCC(CC)NC(=O)c1nc(-c2ccc(F)c(C)c2)cnc1N,7.60,423,logD [3]: 4.8; IC50 at 70 h [4]: 24000 nM; pEC50 [5]: 5.74; selectivity ratio [6]: 630; pEC50 [7]: 7.42; fraction unbound [8]: 0.022; pEC50 [9]: 4.89; pEC50 [10]: < 5.00; solubility kinetic [11]: < 1.6 µg/mL; half-life [12]: 8 min; solubility kinetic [13]: < 1.6 µg/mL; microsomal CLint at 0.5 µM [14]: 212 µL/min/mg
Nc1ncc(-c2ccccc2)nc1C(=O)NCCN1CCCC1,< 5.00,,
CCC(C)NC(=O)c1nc(-c2ccc(C)cc2)cnc1N (stereo not drawn),5.43,22,
Nc1ncc(-c2ccccc2)nc1C(=O)NCCCCO,5.14,> 11,
CCC(C)NC(=O)c1nc(-c2ccccc2C(C)=O)cnc1N (stereo not drawn),5.00,7.9,
CC(C)NC(=O)c1nc(-c2ccccc2)cnc1N,5.59,> 33,
CCC(C)NC(=O)c1nc(-c2ccc(C#N)cc2)cnc1N (stereo not drawn),5.57,> 30.4,
CC(C)(C)NC(=O)c1nc(-c2ccccc2)cnc1N,5.52,> 14,logD [3]: 4.3; fraction unbound [8]: 0.015; solubility kinetic [11]: < 1.6 µg/mL; half-life [12]: 7 min; solubility kinetic [13]: < 1.6 µg/mL; microsomal CLint at 0.5 µM [14]: 246 µL/min/mg

Structure (SMILES),pEC50 [1],selectivity ratio [2],also measured
CCC(C)NC(=O)c1nc(-c2cccc(Cl)c2)cnc1N (stereo not drawn),6.32,175,logD [3]: 4.4; IC50 at 70 h [4]: 39000 nM; pEC50 [5]: 5.96; selectivity ratio [6]: 20; pEC50 [7]: 5.69; fraction unbound [8]: 0.028; pEC50 [9]: 4.60; pEC50 [10]: < 5.00; solubility kinetic [11]: 1.6 µg/mL; half-life [12]: 12 min; solubility kinetic [13]: 1.6 µg/mL; microsomal CLint at 0.5 µM [14]: 147 µL/min/mg
Nc1ncc(-c2ccccc2)nc1C(=O)Nc1ccccc1,< 5.00,,
Nc1ncc(-c2ccccc2)nc1C(=O)N1CCCC1,5.21,> 14,
CCC(C)NC(=O)c1nc(-c2ccccc2Br)cnc1N (stereo not drawn),< 5.00,,
CCC(C)NC(=O)c1nc(-c2ccccc2)cnc1N (stereo not drawn),6.31,> 263,IC50 at 70 h [4]: 18000 nM; pEC50 [5]: 4.96; selectivity ratio [6]: 19; pEC50 [7]: 6.01; pEC50 [9]: 4.72; pEC50 [10]: < 5.00
Nc1ncc(-c2ccccc2)nc1C(=O)NCCN1CCOCC1,< 5.00,,
CCC(C)NC(=O)c1nc(-c2ccccc2C)cnc1N (stereo not drawn),5.92,> 71,
CCC(C)NC(=O)c1nc(-c2ccccc2OC)cnc1N (stereo not drawn),5.27,> 15.4,
CCC(CC)NC(=O)c1nc(-c2ccccc2C#N)cnc1N,6.77,488,IC50 at 70 h [4]: 10000 nM; pEC50 [5]: 5.32; selectivity ratio [6]: 80; pEC50 [7]: 6.89; pEC50 [9]: 4.82; pEC50 [10]: < 5.00
CCC(C)NC(=O)c1nc(-c2ccc(Br)cc2)cnc1N (stereo not drawn),5.66,38,
CCC(C)NC(=O)c1nc(-c2cccc(C)c2)cnc1N (stereo not drawn),6.77,> 495,IC50 at 70 h [4]: 43000 nM; pEC50 [5]: 4.72; selectivity ratio [6]: 340; pEC50 [7]: 6.89; pEC50 [9]: 4.60; pEC50 [10]: < 5.00
CCC(C)NC(=O)c1nc(-c2ccc(OC)cc2)cnc1N (stereo not drawn),5.89,> 63.9,
CCC(C)NC(=O)c1nc(-c2ccccc2C#N)cnc1N (stereo not drawn),6.46,> 239,logD [3]: 3.6; IC50 at 70 h [4]: 18000 nM; pEC50 [5]: 5.44; pEC50 [7]: 6.19; fraction unbound [8]: 0.05; pEC50 [9]: 4.96; pEC50 [10]: < 5.00; solubility kinetic [11]: 1.6 µg/mL; half-life [12]: 14 min; solubility kinetic [13]: 1.6 µg/mL; microsomal CLint at 0.5 µM [14]: 122 µL/min/mg
CCC(C)NC(=O)c1nc(-c2cccc(N)c2)cnc1N (stereo not drawn),5.96,> 77.8,
Nc1ncc(-c2ccccc2)nc1C(=O)N1CCCCC1,5.34,> 18,
CCCCCNC(=O)c1nc(-c2ccccc2)cnc1N,5.77,50,
Nc1ncc(-c2ccccc2)nc1C(=O)N1CCOCC1,< 5.00,,
CCC(C)NC(=O)c1nc(-c2ccc([N+](=O)[O-])cc2)cnc1N (stereo not drawn),5.35,> 18.5,

# Second part, led by results:
pEC50 [1],Structure (SMILES),selectivity ratio [2],also measured
6.44,CCC(CC)NC(=O)c1nc(-c2cccc(Cl)c2)cnc1N,110,
6.49,CCC(CC)NC(=O)c1nc(-c2ccccc2)cnc1N,> 263,logD [3]: 4.3; fraction unbound [8]: 0.05; solubility kinetic [11]: 3.1 µg/mL; half-life [12]: 13 min; solubility kinetic [13]: 6.3 µg/mL; microsomal CLint at 0.5 µM [14]: 133 µL/min/mg
6.32,CCC(CC)NC(=O)c1nc(-c2cc(C)cc(C)c2)cnc1N,173,
6.59,CCC(CC)NC(=O)c1nc(-c2cccc(C(F)(F)F)c2)cnc1N,80,
6.96,Nc1ncc(-c2ccc(F)c(Cl)c2)nc1C(=O)NC1CCCC1,190,
6.24,CCC(C)NC(=O)c1nc(-c2cccc(Br)c2)cnc1N (stereo not drawn),147,
5.96,CCC(C)NC(=O)c1nc(-c2ccccc2Cl)cnc1N (stereo not drawn),76,
7.24,N#Cc1cc(F)ccc1-c1cnc(N)c(C(=O)NC2CCCC2)n1,1470,
6.11,CCC(CC)NC(=O)c1nc(-c2cc(C)cc(Cl)c2)cnc1N,50,
7.62,Cc1cc(-c2cnc(N)c(C(=O)NC3CCCC3)n2)ccc1F,3540,
6.30,Cc1cc(Cl)cc(-c2cnc(N)c(C(=O)NC3CCCC3)n2)c1,170,
6.66,CCC(CC)NC(=O)c1nc(-c2ccc(F)c(Cl)c2)cnc1N,190,
6.82,Nc1ncc(-c2cccc(C(F)(F)F)c2)nc1C(=O)NC1CCCC1,560,
6.39,CCC(C)NC(=O)c1nc(-c2cccc(OC)c2)cnc1N (stereo not drawn),> 201,
7.15,Nc1ncc(-c2ccc(F)cc2)nc1C(=O)NC1CCCC1,590,
6.12,CCC(C)NC(=O)c1nc(-c2ccccc2F)cnc1N (stereo not drawn),111,
6.62,Nc1ncc(-c2cccc(Cl)c2)nc1C(=O)NC1CCCC1,340,
6.05,CCC(C)NC(=O)c1nc(-c2ccccc2[N+](=O)[O-])cnc1N (stereo not drawn),94,
6.09,CCC(C)NC(=O)c1nc(-c2cccc(F)c2)cnc1N (stereo not drawn),102,
6.35,CCC(C)NC(=O)c1nc(-c2cccc([N+](=O)[O-])c2)cnc1N (stereo not drawn),185,
6.17,CCC(C)NC(=O)c1nc(-c2ccc(Cl)cc2)cnc1N (stereo not drawn),122,logD [3]: 4.5; fraction unbound [8]: 0.03; solubility kinetic [11]: 1.6 µg/mL; half-life [12]: 36 min; solubility kinetic [13]: 3.1 µg/mL; microsomal CLint at 0.5 µM [14]: 48 µL/min/mg
6.28,CCCC(C)NC(=O)c1nc(-c2ccccc2)cnc1N (stereo not drawn),> 156,
